Values quoted from earlier work, collected in article PMC2810191 (Biochemistry, 2009).

Test system: Bacillus anthracis

CCc1nc(N)nc(N)c1C#CCc1cc(OC)ccc1OC [UCP120B, 2,4-diamino-5-(3-(2,5-dimethoxyphenyl)prop-1-ynyl)-6-ethyl-pyrimidine]
inhibition of growth of the bacteria: modestly inhibits the growth of the bacteria
